Reference: paper PMC5764959, “Signaling ammonium across membranes through an ammonium sensor histidine kinase” (Nature Communications, 2018)
Values belong to the compound of their own block, whether it stands above or below them.

Legend:
[1] = molecular target: T1, Ks-Amt5 (ammonium sensor histidine kinase, HK domain) (Candidatus Kuenenia stuttgartensis, UniProt Q1Q357); test: SAXS, compaction of the HK domain on nucleotide addition; type: binding
T1 construct: gene amtb; Ks-Amt5^426–679 (soluble HK domain)
T1 sequence (Q1Q357 entry or part of it): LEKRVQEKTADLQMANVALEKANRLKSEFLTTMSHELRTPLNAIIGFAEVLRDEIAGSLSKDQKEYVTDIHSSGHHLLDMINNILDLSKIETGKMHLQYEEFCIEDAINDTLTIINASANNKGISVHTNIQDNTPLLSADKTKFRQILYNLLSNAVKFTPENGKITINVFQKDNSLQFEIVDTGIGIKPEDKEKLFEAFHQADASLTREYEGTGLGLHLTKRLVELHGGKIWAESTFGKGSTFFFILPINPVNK

[2] = molecular target: T1, Ks-Amt5 (ammonium sensor histidine kinase, HK domain); test: isothermal titration calorimetry (also SAXS and […] autophosphorylation); type: binding
[3] = molecular target: T1, Ks-Amt5 (ammonium sensor histidine kinase, HK domain); test: isothermal titration calorimetry; type: binding
[4] = molecular target: T2, Ks-Amt5 (ammonium sensor/transducer) (Candidatus Kuenenia stuttgartensis, UniProt Q1Q357); test: microscale thermophoresis (weak; no electrogenic response); type: binding; design: gene amtb; Ks-Amt5
T2 sequence (Q1Q357 1-679): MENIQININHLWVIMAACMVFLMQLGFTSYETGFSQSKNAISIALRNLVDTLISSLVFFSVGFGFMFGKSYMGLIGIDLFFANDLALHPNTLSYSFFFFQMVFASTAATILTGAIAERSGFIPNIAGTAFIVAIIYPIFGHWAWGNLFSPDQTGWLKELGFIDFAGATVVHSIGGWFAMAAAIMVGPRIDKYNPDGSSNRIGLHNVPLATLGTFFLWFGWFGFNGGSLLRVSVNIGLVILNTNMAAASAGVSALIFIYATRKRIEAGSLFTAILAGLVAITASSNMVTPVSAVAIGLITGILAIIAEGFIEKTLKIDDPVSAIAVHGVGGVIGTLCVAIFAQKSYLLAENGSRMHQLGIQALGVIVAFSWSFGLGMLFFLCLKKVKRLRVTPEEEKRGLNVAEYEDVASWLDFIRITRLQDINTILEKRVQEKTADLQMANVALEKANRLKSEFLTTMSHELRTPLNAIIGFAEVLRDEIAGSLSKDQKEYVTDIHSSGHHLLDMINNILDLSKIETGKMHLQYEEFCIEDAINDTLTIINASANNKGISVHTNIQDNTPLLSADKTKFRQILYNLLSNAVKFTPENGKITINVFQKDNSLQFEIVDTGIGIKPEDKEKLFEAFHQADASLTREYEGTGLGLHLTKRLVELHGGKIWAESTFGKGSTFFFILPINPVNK

[5] = molecular target: T2, Ks-Amt5 (ammonium sensor/transducer); test: biochemical; design: gene amtb
[6] = molecular target: Ks-Amt5 (kust_3690), full-length ammonium sensor histidine kinase (Candidatus Kuenenia stuttgartiensis); test: crystal structure; full-length Ks-Amt5; space group P6_(3); 1.98 Å; only the Amt domain (residues 1-405) modelled, HK domain disordered
[7] = molecular target: Ks-Amt5 (kust_3690), full-length ammonium sensor histidine kinase (Candidatus Kuenenia stuttgartiensis); test: SAXS; full-length Ks-Amt5 in 0.09 % CYMAL-5; batch or SEC-SAXS (Superdex 200 10/300); buffer C with 5 % glycerol; 20 °C; molecular weight from forward scattering I(0)
[8] = molecular target: Ks-Amt5 (kust_3690), full-length ammonium sensor histidine kinase (Candidatus Kuenenia stuttgartiensis); test: SEC; Superdex 200 26/60; buffer C (20 mM HEPES/NaOH pH 7.5 or 20 mM Tris/HCl pH 8.0, 100 mM NaCl) with 5-10 % glycerol and detergent; 4 °C; self-association of the detergent-solubilized protein

Compound: Nc1ncnc2c1ncn2[C@@H]1O[C@H](COP(=O)(O)OP(=O)(O)CP(=O)(O)O)[C@@H](O)[C@H]1O [APPCP]
SAXS, compaction of the HK domain on nucleotide addition [1]: change toward a more compact and less-flexible structure when either APPCP or ATP are added to the HK domain

Compound: Nc1ncnc2c1ncn2[C@@H]1O[C@H](COP(=O)(O)OP(=O)(O)OP(=O)(O)O)[C@@H](O)[C@H]1O [ATP]
Kd [2]: 11.16 ± 0.03 µM

Kd [3]: 36.74 ± 0.05 µM
Compound: Nc1ncnc2c1ncn2[C@@H]1O[C@H](CO[P@](=O)(O)O[P@](=O)(O)O[P@@](=O)(O)S)[C@@H](O)[C@H]1O [ATPγS]

Compound: CN [MA, methylammonium]
Kd [4]: 2350 ± 440 µM

Kd [5]: 41 ± 24 µM
Compound: N [NH4^+]

stoichiometry N [6]: 3 | stoichiometry N [7]: 3 | stoichiometry N [8]: 3
Compound: Ks-Amt5 (kust_3690), full-length ammonium sensor histidine kinase (natural protein)
